Experimental data published in patent publication US12583835B2, “Crystal form of nitroxoline prodrug, pharmaceutical composition containing same, and preparation method therefor and application thereof” (Jiangsu Yahong Meditech Co., Ltd., priority 2020, dated 2026).
“And” between values parts separate entries of the source, which are not always exact repeats. Equal values may be shown once.

What was measured:
[1] = human; single-arm, open-label, multi-center phase II clinical trial; cited from earlier work
[2] = Pharmacokinetic assay in dogs; format: in vivo; settings: beagles
Description: Nitroxoline is mainly metabolized by Phase II metabolism in the liver with a high metabolism rate, thus the in vivo half-life is short. In this experiment, after a single intravenous or oral administration of nitroxoline and the compound obtained in Example 1 to dogs, the changes in the concentration of the compound nitroxoline in dog plasma were studied, so as to evaluate the in vivo pharmacokinetic behaviors of nitroxoline and the compound obtained in Example 1.
Male beagles (Beijing Marshall Bioresources Co., Ltd., laboratory animal production license No.: SCXK (Beijing) 2016-0001, laboratory animal certificate No.: 11400600001728), 3 beagles per group, weight 10-13 kg, 20-22 months old, were fasted overnight before drug administration with free access to water, and food was given 4 hours after drug administration. The compound to be tested was put into an EP tube, dimethyl sulfoxide, Solutol® and sterile water for injection (the volume ratio of the three was 1:2:17, v:v:v) were added, and the EP tube was sonicated for 20 minutes to fully dissolve the compound (formulation concentration of the compound: 0.005 mmol/mL). The intravenous dose was 0.01 mmol/kg, and the oral dose was 0.1 mmol/kg. 0.3 ml of whole blood was collected from the jugular vein before drug administration (0 hour) and 0.0833, 0.25, 0.5, 0.75, 1, 2, 4, 6, 8, 10 and 12 hours after drug administration (the sampling points were adjusted according to the situation) and placed in a centrifuge tube containing EDTA-K2 (Aldrich Reagents) for anticoagulation, which was placed in crushed ice after sample collection. The tube was centrifuged at 1530 g for 10 minutes within 0.5 hours of sample collection. All clean plasma were isolated and placed in another clean centrifuge tube, which was placed in a −20° C. refrigerator until testing.
A series of solutions for standard curve was prepared. To 10 μL of solutions for standard curve and samples was added 1000 μL of internal standard working solution (a solution of 5 ng/mL verapamil (Aldrich Reagents), 50 ng/mL glibenclamide (Aldrich Reagents) and 50 ng/mL diclofenac (Aldrich Reagents) in acetonitrile) was added, and the resulting solution was vortexed for 5 minutes. After centrifuging at 4° C., 3700 rpm for 10 minutes, 60 μL of the supernatant was collected into a sample tube and mixed well with 120 μL of water, and 10 μL of the mixed solution was injected into the LC/MS system for determination. Pharmacokinetic parameters were calculated using WinNonlin V6.2 non-compartmental model.

[3] = Pharmacokinetic assay in rats; format: in vivo; settings: SD rats, oral 0.1 mmol/kg, 24 h, individual animals
Description: In this experiment, after a single intravenous or oral administration of nitroxoline and the compound obtained in Example 1 to rats, the changes in the concentration of the compound nitroxoline in rat plasma were studied, so as to evaluate the in vivo pharmacokinetic behaviors of nitroxoline and the compound obtained in Example 1 in rats.
Male SD rats (Beijing Vital River Laboratory Animal Technology Co., Ltd., laboratory animal production license No.: SCXK (Beijing) 2016-0006, laboratory animal certificate No.: 11400700325643), 3 rats per group, weight 180-250 g, 6-7 weeks old, were fasted overnight before drug administration with free access to water, and food was given 4 hours after drug administration. The compound to be tested was put into an EP tube, 1.017 mL dimethyl sulfoxide, 2.035 mL Solutol® and sterile water for injection (the volume ratio of the three was 1:2:17, v:v:v) were added, and the EP tube was sonicated for 20 minutes to fully dissolve the compound (formulation concentration of the compound: 0.005 mmol/mL). […]
Sample to be tested: to 50 μL of plasma sample to be tested was added 5 μL of diluted working solution, then 150 μL of internal standard working solution (a solution of 2 ng/mL diphenhydramine in acetonitrile), and the resulting solution was vortexed for 1 minute. […] Pharmacokinetic parameters were calculated using WinNonlin V6.2 non-compartmental model.

SMILES: O=[N+]([O-])c1ccc(O)c2ncccc12 [Nitroxoline, 5-nitro-8-hydroxyquinoline]
- half-life [1]: 1.22 to 1.44 h
- AUC0-inf of nitroxoline in plasma ([2]; intravenous 0.01 mmol/kg): 3300 ng*hmL^−1
- AUC0-inf of nitroxoline in plasma ([2]; oral 0.1 mmol/kg): 4780 ng*hmL^−1
- Plasma concentration of nitroxoline [3]: <5.0 ng/mL (2×) and 14.6 ng/mL
